Results published in US9573926B2, “Amidoalkylenyl and amidoaryl esters, compositions thereof, and methods for their use” (Allergan, Inc., priority 2014, dated 2017).

Test: Aqueous stability of formulated compound (% remaining over time)
Format: physicochemical
Conditions: 0.0005% w/v (5 ppm) in pH 6 buffer contain 1% PS80, n = 1

CC(=O)NCCOC(=O)c1ccc(CCC[C@@H]2[C@@H](CCc3cc(Cl)cc(Cl)c3)[C@H](O)C[C@H]2Cl)s1 [Compound 2, 2-Acetamidoethyl 5-(3-((1R,2R,3R,5R)-5-chloro-2-(3,5-dichlorophenethyl)-3-hydroxycyclopentyl)propyl)thiophene-2-carboxylate]
% Remaining (25° C., 14 days): 99.3% | % Remaining (25° C., 28 days): 99.6% | % Remaining (40° C., 14 days): 99.1% | % Remaining (40° C., 28 days): 99.5% | % Remaining (60° C., 14 days): 98.6% | % Remaining (60° C., 28 days): 97.0%

CC(=O)NCCCOC(=O)c1ccc(CCC[C@@H]2[C@@H](CCc3cc(Cl)cc(Cl)c3)[C@H](O)C[C@H]2Cl)s1 [Compound 3, 3-Acetamidopropyl 5-(3-((1R,2R,3R,5R)-5-chloro-2-(3,5-dichlorophenethyl)-3-hydroxycyclopentyl)propyl)thiophene-2-carboxylate]
% Remaining (25° C., 14 days): 99.2% | % Remaining (25° C., 28 days): 103.5% | % Remaining (40° C., 14 days): 99.8% | % Remaining (40° C., 28 days): 100.5% | % Remaining (60° C., 14 days): 99.4% | % Remaining (60° C., 28 days): 98.6%
